Test: Solubility in TFP (2,2,3,3-tetrafluoropropanol)
Format: physicochemical
Source text: Solubility: >2% in TFP (2,2,3,3-tetrafluoropropanol)

SMILES: CN(C)c1ccc(/C=C/C2=[N+](C)c3ccccc3C2(C)C)o1 [Example 1]
- Solubility: > 2%
